Source: patent publication US6482984B2 (priority 2000, dated 2002)

Assays:
Type in all cases: in vivo
[1] = test system: powdery mildew of wheat (Erysiphe graminis forma specialis tritici); assay: Activity against powdery mildew of wheat (protective spray, potted wheat seedlings); details: 1 ppm active ingredient; wheat seedlings c.v. Frühgold; dusted with spores 24 hours after spraying; scored visually after 7 days; untreated plants infected to 90%
Procedure: (§1) The active ingredients were formulated as a 10% strength emulsion in a mixture of 63% by weight of cyclohexanone and 27% by weight of emulsifier and diluted to the desired concentration with water.
Leaves of potted wheat seedlings c.v. “Frühgold” were sprayed to run off point with an aqueous preparation of active ingredient which had been prepared using a stock solution of 10% of active ingredient, 63% of cyclohexanone and 27% of emulsifier and, 24 hours after the spray coating had dried on, dusted with spores of powdery mildew of wheat (Erysiphe graminis forma specialis tritici). The test plants were subsequently placed in a greenhouse at 20-24° C. and 60-90% relative atmospheric humidity. After 7 days, the extent of the mildew development was scored visually in % infection of the total leaf area.

Puccinia recondita = assay: Curative activity against Puccinia recondita on wheat (leaf rust of wheat); details: 16 ppm active ingredient; wheat seedlings c.v. Kanzler; sprayed the day after infection (curative); 7 days in greenhouse; untreated plants infected to 95%
Procedure: as §1
Leaves of potted wheat seedlings c.v. “Kanzler” were dusted with leaf rust spores (Puccinia recondita). The pots were then placed for 24 hours in a chamber with high atmospheric humidity (90 to 95%) at 20 to 22° C. During this time, the spores germinated, and the germinal tubes penetrated the leaf tissue. The next day, the infected plants were sprayed to run off point with an aqueous preparation of active ingredient which had been prepared using a stock solution of 10% of active ingredient, 63% of cyclohexanone and 27% of emulsifier. After the spray coating had dried on, the test plants were cultivated for 7 days in a greenhouse at 20-22° C. and a relative atmospheric humidity of 65-70%. The extent of rust development on the leaves was then determined.

Pyricularia oryzae = details: 63 ppm active ingredient; rice seedlings c.v. Tai-Nong 67; inoculated the day after spraying (protective); 6 days; determined visually; untreated plants infected to 85%

| Structure (SMILES) | extent of the mildew development, % infection of the total leaf area [1] | extent of rust development on the leaves (infection) (Puccinia recondita) [%] | extent of the development of the infection on the leaves (Pyricularia oryzae) [%] |
| --- | --- | --- | --- |
| CNC(=O)/C(=N/OC)c1ccccc1COc1ccccc1C [compound A] | 60% | 60 | 25 |
| CNC(=O)/C(=N/OC)c1ccccc1COc1ccc(OC(C)/C(C)=N/OC)cc1C (stereo not shown) [I-1, 2-Methoxyimino-2-{2-[4-(2-methoxyimino-1-methyl-propoxy)-2-methylphenoxymethyl]phenyl}-N-methyl-acetamide] | no infection |  |  |
| CNC(=O)/C(=N/OC)c1ccccc1COc1ccc(/C(C)=N/OC)cc1C [compound B] | 25% | 25 | 40 |
